Read-outs that look alike come from different tables or passages of the source. Positions of bridges follow the written chain, without caps; N, C: chain ends. Non-standard residues stand in square brackets, D forms with d. Residues, ends and D or L forms follow the SMILES beside them. Groups on a side chain read outwards from the residue. Chains are numbered I, II in the order given. *: point of attachment. X5 = C[N+](C)(Cc1cn(CC(=O)*)nn1)C[B-](F)(F)F; 2Nal = N[C@@H](Cc1ccc2ccccc2c1)C(=O)O; X3 = C[N+](C)(CCCC(=O)*)C[B-](F)(F)F; Lys(iPr) = CC(C)NCCCC[C@H](N)C(=O)O
Experiments:
[1] = target: T1, CXCR4 (Homo sapiens, UniProt P61073); details: Peng et al. 2015; read-out: IC50, block SDF-1a binding to CXCR4; cited from earlier work
T1 construct: expressed in transfected cells; host or cells: CHO:CXCR4 cells (gift from NIH); CHO:WT used as the control line
T1 sequence (P61073 whole entry): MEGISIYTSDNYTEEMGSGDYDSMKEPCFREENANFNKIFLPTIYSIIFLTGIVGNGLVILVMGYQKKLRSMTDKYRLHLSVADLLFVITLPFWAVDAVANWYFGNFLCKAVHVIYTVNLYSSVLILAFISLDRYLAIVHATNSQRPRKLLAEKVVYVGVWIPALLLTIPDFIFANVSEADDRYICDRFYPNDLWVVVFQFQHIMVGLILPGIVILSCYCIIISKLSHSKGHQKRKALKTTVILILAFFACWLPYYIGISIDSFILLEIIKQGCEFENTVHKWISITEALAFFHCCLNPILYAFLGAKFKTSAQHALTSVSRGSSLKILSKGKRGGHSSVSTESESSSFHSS

[2] = target: T1, CXCR4; assay: Competition binding assay ([^125I]SDF-1α, CHO:CXCR4 cells); details: competitive binding vs [^125I]SDF-1α, read-out: IC50 (nM), binding affinity for CXCR4
Method: The binding affinities of nonlabelled peptides for CXCR4 were determined using a competition binding assay using the CHO:CXCR4 cells. Briefly, CHO:CXCR4 cells (200,000 cells/well) were plated in a 24-well BioCoat™ Poly-D-Lysine Multiwell Plates (Corning) the previous night. The next day, each well was incubated with RPMI-1640 medium (Life Technologies Corporations) supplemented with 20 mM HEPES and 2 mg/mL BSA, [^125I]SDF-1α (0.01 nM, Perkin Elmer) and competing non-radioactive ligands ([…]) and incubated for 1-1.5 hours at 27° C. with moderate shaking. After incubation, the cells were washed with ice-cold PBS twice, trypsinized and counted on a Perkin Elmer WIZARD 2480 gamma counter. IC50 values were determined by a nonlinear regression analysis to fit a logistic equation to the competition data using GraphPad Prism 7.

Row | IC50 [2] [nM] | Compound | IC50 [1] [nM]
1 |  | cyclo[Phe-Tyr-Lys(iPr)-D-Arg-2-NaI-Gly-D-Glu]-Lys(iPr)-NH2 [LY2510924] | 0.079
2 | 11.6 ± 7 | CC(C)NCCCC[C@@H]1NC(=O)[C@H](Cc2ccc(O)cc2)NC(=O)[C@H](Cc2ccccc2)NC(=O)CC[C@H](C(=O)N[C@@H](CCCCNC(C)C)C(=O)N[C@@H](CCCCNC(=O)[C@H](CCC(=O)O)NC(=O)[C@H](CCC(=O)O)NC(=O)[C@H](CCC(=O)O)NC(=O)CCC[N+](C)(C)C[B-](F)(F)F)C(N)=O)NC(=O)CNC(=O)[C@H](Cc2ccc3ccccc3c2)NC(=O)[C@@H](CCCNC(=N)N)NC1=O [BL08] (FY[Lys(iPr)][dR][2Nal]G[dE][Lys(iPr)]K([Glu-Glu-Glu-X3])-NH2; lactam N-7) | 
3 | 63 ± 9 | CC(C)NCCCC[C@@H]1NC(=O)[C@H](Cc2ccc(O)cc2)NC(=O)[C@H](Cc2ccccc2)NC(=O)CC[C@H](C(=O)N[C@@H](CCCCNC(C)C)C(=O)N[C@@H](CCCCNC(=O)[C@H](CCC(=O)O)NC(=O)[C@H](CCC(=O)O)NC(=O)[C@H](CCC(=O)O)NC(=O)[C@H](CCCCNC(=O)[C@H](CCC(=O)O)NC(=O)Cn2cc(C[N+](C)(C)C[B-](F)(F)F)nn2)NC(=O)[C@H](CCC(=O)O)NC(=O)Cn2cc(C[N+](C)(C)C[B-](F)(F)F)nn2)C(N)=O)NC(=O)CNC(=O)[C@H](Cc2ccc3ccccc3c2)NC(=O)[C@@H](CCCNC(=N)N)NC1=O [BL04] (I: FY[Lys(iPr)][dR][2Nal]G[dE][Lys(iPr)]K-NH2 / II: X5-EK([Glu-X5])EEE; amide I:9-II:C; lactam I:N-I:7) | 
4 | 13.4 ± 2.3 | CC(C)NCCCC[C@@H]1NC(=O)[C@H](Cc2ccc(O)cc2)NC(=O)[C@H](Cc2ccccc2)NC(=O)CC[C@H](C(=O)N[C@@H](CCCCNC(C)C)C(=O)N[C@@H](CCCCNC(=O)[C@H](CCC(=O)O)NC(=O)[C@H](CCC(=O)O)NC(=O)[C@H](CCC(=O)O)NC(=O)Cn2cc(C[N+](C)(C)C[B-](F)(F)F)nn2)C(N)=O)NC(=O)CNC(=O)[C@H](Cc2ccc3ccccc3c2)NC(=O)[C@@H](CCCNC(=N)N)NC1=O [BL09] (FY[Lys(iPr)][dR][2Nal]G[dE][Lys(iPr)]K([Glu-Glu-Glu-X5])-NH2; lactam N-7) | 
